Reference: patent publication US8178658B2 (Dow AgroSciences, LLC, priority 2008, dated 2012)

What was measured:
[1] = system: beet armyworm (BAW; Spodoptera exigua: Lepidoptera); assay: 128-well diet tray assay on beet armyworm (BAW 50); format: in vivo; details: 128-well diet tray assay, second instar BAW larvae, mortality class; for BAW 50 ug/cm2: 50 μg/cm^2 of test compound on diet; for pest or weed control at 50 µg/cm2, 50 µg/cm2: Spodoptera exigua, 144 h, 50 μg/cm2 of test compound on diet, read-out: BAW 50 ug/cm2
In short: (§1)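 Spodoptera exigua eggs on artificial diet in 96-well plates, surface-treated with 12 μg compound in DMSO-acetone-water; dark, 29° C, mortality at 6 d, six replicates. 128-well trays: second-instar larvae on diet treated at 50 μg/cm^2, 25° C, 14:10 light-dark, six days, mortality averaged over eight wells.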

[2] = system: beet armyworm (BAW; Spodoptera exigua: Lepidoptera); assay: 96-well microtiter plate-based high throughput (HTS) diet bioassay on beet armyworm (BAW HTS); format: in vivo; details: BAW eggs, 12 μg test compound per well, mortality at 6 d post-treatment, mortality class; for pest or weed control at 12 µg/well, 12 µg/well: Spodoptera exigua, 144 h, read-out: BAW HTS
In short: as §1

[3] = 96-well microtiter plate HTS diet assay

Row | Compound | BAW 50 ug/cm2 [1] | BAW HTS ([2]; 96-well HTS diet bioassay) | BAW HTS [2, 3] | pest or weed control at 50 µg/cm2, 50 µg/cm2 [1] | pest or weed control at 12 µg/well, 12 µg/well ([2]; 96-well HTS diet bioassay)
1 | COC1C(C)OC(ON=Cc2ccc(-c3nn(-c4ccc(F)cc4F)c(=O)[nH]3)cc2)C(OC)C1OC (stereo not drawn) [Compound 100] | A (the compound was tested and at least 50 percent mortality was observed) | B (either (1) the compound was tested and less than 50 percent mortality was observed or (2) the compound was not tested) | B (either (1) the compound was tested and less than 50 percent mortality was observed or (2) the compound was not tested) | – | –
2 | COC1C(C)OC(ON=Cc2ccc(-c3nn(-c4ccc(OC(F)(F)F)cc4)c(=O)[nH]3)cc2)C(OC)C1OC (stereo not drawn) [Compound 101] | A (the compound was tested and at least 50 percent mortality was observed) | B (either (1) the compound was tested and less than 50 percent mortality was observed or (2) the compound was not tested) | B (either (1) the compound was tested and less than 50 percent mortality was observed or (2) the compound was not tested) | – | –
3 | COC1C(C)OC(ON=Cc2ccc(-c3ncn(-c4ccc(Br)cc4)n3)cc2)C(OC)C1OC (stereo not drawn) [Compound 102] | B (either (1) the compound was tested and less than 50 percent mortality was observed or (2) the compound was not tested) | B (either (1) the compound was tested and less than 50 percent mortality was observed or (2) the compound was not tested) | B (either (1) the compound was tested and less than 50 percent mortality was observed or (2) the compound was not tested) | – | –
4 | CO[C@@H]1[C@@H](OC)[C@H](C)O[C@@H](ON=Cc2ccc(-c3ncn(-c4ccc([S+]([O-])C(F)(F)F)cc4)n3)cc2)[C@@H]1OC (stereo partly drawn) [Compound 103, 4-[1-(4-trifluoromethanesulfinylphenyl)-1H-[1,2,4]triazol-3-yl]-benzaldehyde O-((2S,3R,4R,5S,6S)-3,4,5-trimethoxy-6-methyl-tetrahydropyran-2-yl)-oxime] | A (the compound was tested and at least 50 percent mortality was observed) | – | B (either (1) the compound was tested and less than 50 percent mortality was observed or (2) the compound was not tested) | > 50% | < 50%
5 | CO[C@@H]1[C@@H](OC)[C@H](C)O[C@@H](ON=Cc2ccc(-c3ncn(-c4ccc(S(=O)(=O)C(F)(F)F)cc4)n3)cc2)[C@@H]1OC [Compound 104, 4-[1-(4-trifluoromethanesulfonylphenyl)-1H-[1,2,4]triazol-3-yl]-benzaldehyde O-((2S,3R,4R,5S,6S)-3,4,5-trimethoxy-6-methyl-tetrahydropyran-2-yl)-oxime] | A (the compound was tested and at least 50 percent mortality was observed) | – | B (either (1) the compound was tested and less than 50 percent mortality was observed or (2) the compound was not tested) | > 50% | < 50%
6 | COC1C(C)OC(ON=Cc2ccc(-c3ncn(-c4ccc(SC(F)(F)C(F)(F)F)cc4)n3)cc2)C(OC)C1OC (stereo not drawn) [Compound 105] | A (the compound was tested and at least 50 percent mortality was observed) | B (either (1) the compound was tested and less than 50 percent mortality was observed or (2) the compound was not tested) | B (either (1) the compound was tested and less than 50 percent mortality was observed or (2) the compound was not tested) | – | –
7 | CCCOC1C(OC)C(C)OC(ON=Cc2ccc(-c3ncn(-c4ccc(OC(F)(F)C(F)(F)F)cc4)n3)cc2)C1OC (stereo not drawn) [Compound 106] | A (the compound was tested and at least 50 percent mortality was observed) | B (either (1) the compound was tested and less than 50 percent mortality was observed or (2) the compound was not tested) | B (either (1) the compound was tested and less than 50 percent mortality was observed or (2) the compound was not tested) | – | –
8 | CCCOC1C(OC)C(C)OC(ON=Cc2ccc(-c3ncn(-c4ccc(C(F)(F)F)cc4)n3)cc2)C1OC (stereo not drawn) [Compound 107] | A (the compound was tested and at least 50 percent mortality was observed) | A (the compound was tested and at least 50 percent mortality was observed) | A (the compound was tested and at least 50 percent mortality was observed) | – | –
9 | CCCOC1C(OC)C(C)OC(ON=Cc2ccc(-c3ncn(-c4ccc(C(F)(F)C(F)(F)F)cc4)n3)cc2)C1OC (stereo not drawn) [Compound 108] | A (the compound was tested and at least 50 percent mortality was observed) | B (either (1) the compound was tested and less than 50 percent mortality was observed or (2) the compound was not tested) | B (either (1) the compound was tested and less than 50 percent mortality was observed or (2) the compound was not tested) | – | –
10 | CCCCOC1C(OC)C(C)OC(ON=Cc2ccc(-c3ncn(-c4ccc(OC(F)(F)C(F)(F)F)cc4)n3)cc2)C1OC (stereo not drawn) [Compound 109] | A (the compound was tested and at least 50 percent mortality was observed) | A (the compound was tested and at least 50 percent mortality was observed) | A (the compound was tested and at least 50 percent mortality was observed) | – | –
11 | CCCOC1C(OC)C(C)OC(ON=Cc2ccc(-c3ncn(-c4ccc(C(F)(F)C(F)(F)C(F)(F)F)cc4)n3)cc2)C1OC (stereo not drawn) [Compound 110] | A (the compound was tested and at least 50 percent mortality was observed) | B (either (1) the compound was tested and less than 50 percent mortality was observed or (2) the compound was not tested) | B (either (1) the compound was tested and less than 50 percent mortality was observed or (2) the compound was not tested) | – | –
12 | CCOC1C(OC)C(C)OC(ON=Cc2ccc(-c3ncn(-c4ccc(OS(=O)(=O)C(F)(F)F)cc4)n3)cc2)C1OC (stereo not drawn) [Compound 112] | A (the compound was tested and at least 50 percent mortality was observed) | B (either (1) the compound was tested and less than 50 percent mortality was observed or (2) the compound was not tested) | B (either (1) the compound was tested and less than 50 percent mortality was observed or (2) the compound was not tested) | – | –
13 | CCCO[C@@H]1[C@@H](OC)[C@@H](OC)[C@H](O/N=C/c2ccc(-c3ncn(-c4ccc(OC(F)(F)C(F)(F)F)cc4)n3)cc2)O[C@H]1C [Compound 113, 4-[1-(4-pentafluoroethyloxy-phenyl)-1H-[1,2,4]triazol-3-yl]-benzaldehyde, O-((2S,3R,4R,5S,6S)-3,4-dimethoxy-6-methyl-5-propoxy-tetrahydropyran-2-yl)-oxime] | A (the compound was tested and at least 50 percent mortality was observed) | – | B (either (1) the compound was tested and less than 50 percent mortality was observed or (2) the compound was not tested) | > 50% | < 50%
14 | CCOC1C(OC)C(C)OC(ON=Cc2ccc(-c3ncn(-c4ccc(C(F)(F)F)cc4Cl)n3)cc2)C1OC (stereo not drawn) [Compound 115] | A (the compound was tested and at least 50 percent mortality was observed) | B (either (1) the compound was tested and less than 50 percent mortality was observed or (2) the compound was not tested) | B (either (1) the compound was tested and less than 50 percent mortality was observed or (2) the compound was not tested) | – | –
15 | CCOC1C(OC)C(C)OC(ON=Cc2ccc(-c3ncn(-c4ccc(C(F)(F)F)cn4)n3)cc2)C1OC (stereo not drawn) [Compound 116] | A (the compound was tested and at least 50 percent mortality was observed) | B (either (1) the compound was tested and less than 50 percent mortality was observed or (2) the compound was not tested) | B (either (1) the compound was tested and less than 50 percent mortality was observed or (2) the compound was not tested) | – | –
16 | CCOC1C(OC)C(C)OC(ON=Cc2ccc(-c3ncn(-c4ccc(Cl)nn4)n3)cc2)C1OC (stereo not drawn) [Compound 117] | B (either (1) the compound was tested and less than 50 percent mortality was observed or (2) the compound was not tested) | B (either (1) the compound was tested and less than 50 percent mortality was observed or (2) the compound was not tested) | B (either (1) the compound was tested and less than 50 percent mortality was observed or (2) the compound was not tested) | – | –
17 | CCCOC1C(OC)C(C)OC(ON=Cc2ccc(-c3ncn(-c4ccc(C(F)(F)F)cn4)n3)cc2)C1OC (stereo not drawn) [Compound 118] | A (the compound was tested and at least 50 percent mortality was observed) | B (either (1) the compound was tested and less than 50 percent mortality was observed or (2) the compound was not tested) | B (either (1) the compound was tested and less than 50 percent mortality was observed or (2) the compound was not tested) | – | –
18 | COCC1OC(ON=Cc2ccc(-c3ncn(-c4ccc(OC(F)(F)C(F)(F)F)cc4)n3)cc2)C(OC)C(OC)C1OC (stereo not drawn) [Compound 119] | A (the compound was tested and at least 50 percent mortality was observed) | A (the compound was tested and at least 50 percent mortality was observed) | A (the compound was tested and at least 50 percent mortality was observed) | – | –
19 | CCOC1C(OC)C(C)OC(ON=Cc2ccc(-c3ncn(-c4ccc(OC(F)(F)F)cc4)n3)cc2)C1OC (stereo not drawn) [Compound 120] | A (the compound was tested and at least 50 percent mortality was observed) | A (the compound was tested and at least 50 percent mortality was observed) | A (the compound was tested and at least 50 percent mortality was observed) | – | –
